Test results from patent US20230138563A1, “METHODS FOR QUANTIFICATION OF COMPOUNDS IN CULTIVARS OF Cannabis sp” (MEDLEAF BIOTECHNOLOGIES AND GLOBAL RESEARCH AND D[…]., priority 2020, published 2023).

Key:
[1] = system: U87 human glioma cells; details: mouse, in vivo; cited from earlier work
[2] = system: U373 human glioma cell line; details: cited from earlier work
[3] = system: U87 human glioma cell line; details: cited from earlier work
[4] = system: U-87 MG glioma cell; test: single-cell microfluidic intracellular calcium bioassay (Fluo-4 fluorescence); details: for [Ca^2+]i: single U-87 MG cell, calculated from fluorescence by eq. 1
Description: The current study was designed to investigate the pharmacological potential of CBD on calcium uptake in U87MG glioma cells by a method using a single-cell microfluidic approach.
The glass chip was fabricated through the standard micromachining processes at Canadian Microelectronic Corporation (CMC) by a process that includes standard chip cleaning, thin film deposition, photolithography, photoresist development, hydrofluoric acid wet etching, reservoir forming, and chip bonding, as previously reported (Li et al. 2005). The chip design is shown in FIG. 9, consisting of three reservoirs, three channels and one chamber containing the cell retention structure to isolate the single cell. Reservoir 1 was used for cell introduction and washing, reservoir 2 was used for reagent delivery, and reservoir 3 was a waste reservoir. The channel was 40 μm deep, while the reservoirs were 600 μm deep and 2.5 mm in diameter.
A fluorescent calcium probe, Fluo-4 AM ester (50 μg, special packaging, Molecular Probes, Eugene, Oreg.) was first dissolved in 50 μL of dimethyl sulfoxide (DMSO, 99.9%, Sigma-Aldrich, St. Louis, Mo.) to make a stock solution of 1 μg/μL. Before use, it was freshly diluted in Hanks' balanced salt solution (HBSS, Invitrogen Corp., Grand Island, N.Y.) to make a 5.0 μM working solution. Due to light sensitivity of Fluo-4 AM, it must be stored in the dark at −20° C. Cannabidiol (CBD) was purchased from Cerilliant Corporation (Round Rock, Tex.) as drug enforcement agency-exempt solution, i.e. 1 mg/mL solution in methanol (MeOH). Trypan blue solutions (4%) were purchased from Sigma-Aldrich (St. Louis, Mo.). RPMI 1640 medium solution, trypsin-ethylenediaminetetraacetic acid (Trypsin-EDTA) (0.025%), penicillin-streptomycin and fetal bovine serum (FBS) were obtained from Life Technologies (Grand Island, N.Y.). lonomycin (Calcium salt, Sigma Chemical Co.) was used to saturate the Ca^2+-Fluo-4 fluorescence within the cells. Ionomycin was dissolved in DMSO to make the stock solution which was finally diluted in HBSS containing 1 mM CaCl2 to make working solutions. The glioma cells (U-87 MG) were obtained from ATCC (Manassas, Va.). The cells were maintained in the RPMI medium with 10% fetal bovine serum and 1% penicillin in a 5% CO2 atmosphere at 37° C. and were passaged twice a week.
An optical imaging and fluorescent measurement system was used, as previously described (Li et al., 2009). Briefly, an inverted microscope (TE300, Nikon, Mississauga, ON, Canada) was connected to a video camera (JVC, TK-C3180). A TV set was used for optical observation (FIG. 2). By using a dichroic filter (620 nm), only red light entered the video camera for cell imaging without interfering with the fluorescent measurement. The green fluorescent emission (535 nm) was achieved under the Xenon arc lamp excitation (480 nm) selected by the microphotometer system (PTI) through a detection aperture. The chip was translated back and forth manually so the cellular fluorescence or background signal could be measured.
Before running any experiment, the microfluidic chip was cleaned by soap solution (2 times), rinsed with deionized water (3 to 5 times), and sterilized with 75% ethanol (1 time). After the cleaning step, […] of a cell suspension was introduced into the cell inlet from reservoir 1, the cells flowed from the left to right across the cell retention structure. By adjusting the liquid levels of the right […] (waste) and the left reservoir 1 (cell inlet), a desired U-87 MG cell was slowed down near the entrance of the cell retention structure. As the glioma cell is adherent, it readily becomes stationary to maintain its location in the retention structure. The glioma cell was allowed to settle for about 15 minutes, during which it was attached to the glass chip surface before the fluorescence measurement started.

[5] = system: U87 human glioma cells; details: in vitro, dose-dependently, 0.01 up to 9 μM; cited from earlier work
[6] = read-out: Kd (dissociation constant of the dye); cited from earlier work

Structure (SMILES): C=C(C)[C@@H]1CCC(C)=C[C@H]1c1c(O)cc(CCCCC)cc1O [CBD, cannabidiol]
- viability of U87 human glioma cells in mice [1]: prohibited
- antiproliferative effect [2]: antiproliferative effects
- mitochondrial oxidative metabolism ([3]; CBD exposure to cells): reduced
- antiproliferative effect ([3]; U87): antiproliferative effects
- change of [Ca^2+]i (FIG. 10) ([4]; 9.5 μM CBD): increased slightly
- change of [Ca^2+]i (FIG. 10) ([4]; 19 μM CBD compared to 9.5 μM): significantly increased
- concentration dependence of intracellular [Ca^2+]i increase ([4]; CBD 9.5 and 19 μM): concentration-dependent manner
- cell viability by trypan blue at end of experiment ([4]; after 9.5 and 19 μM CBD and ionomycin): not dead
- [Ca^2+]i ([4]; after 9.5 μM CBD): 47.9 nM
- [Ca^2+]i ([4]; after 19 μM CBD): 913 nM
- translocation of U87 human glioma cells [5]: inhibited

Structure (SMILES): Cc1ccc(N(CC(=O)O)CC(=O)O)c(OCCOc2cc(-c3c4cc(F)c(=O)cc-4oc4cc(O)c(F)cc34)ccc2N(CC(=O)O)CC(=O)O)c1 [Fluo-4]
- Kd [6]: 350 nM

Structure (SMILES): C[C@H](CCC(=O)O)C[C@H](C)C[C@H](C)C(=O)/C=C(\O)[C@H](C)C[C@H](C)C/C=C/[C@@H](C)[C@@H](O)[C@@H](C)[C@@H](O)C[C@@H]1CC[C@@](C)([C@H]2CC[C@@](C)([C@@H](C)O)O2)O1 [ionomycin, Ionomycin]
- fluorescence response after ionomycin (Fmax) ([4]; 10 μM ionomycin, at ~6000 s): obvious fluorescence peak

Structure (SMILES): C=CC(=C)CCC=C(C)C [myrcene]
- cell calcium response ([4]; 10 μM, data not shown): not detectable
- cell calcium response (FIG. 11) ([4]; 20 μM, alone): a little cell calcium response
